Test in all cases: growth of human tumour cells (NCI), 48 h
The subject of test [1] is CAKI-1 renal.
The test system of test [2] is ACHN renal.
Test [3] has as its system NCI/ADR-RES ovarian.
The test system of test [4] is HT29 colon.
The subject of test [5] is RPMI-8226 leukemia.
The subject of test [6] is SK-MEL-28 melanoma.
The test system of test [7] is MOLT-4 leukemia.
For test [8], the system named is HCT-116 colon.
The test system of test [9] is HCT-15 colon.
The test system of test [10] is MALME-3M melanoma.

Where “and” joins values, the source holds several entries; their conditions need not be identical. Equal entries are not always repeated.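 Assay format: 96-well plates, 48-hour exposure. At the GI50, growth is halved. Definition used: TGI = concentration required for complete inhibition of growth.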 A value given as a limit tells only on which side of the number the result lay.

Our source for the GI50 and TGI values is PubChem BioAssay (NCI).

Regarding `COc1cc(/C=C/c2cc(/C=C/c3ccc(O)c(OC)c3)n(C(=O)Nc3ccc(C)cc3C)n2)ccc1O`, the GI50 in [1] was 367 nM; in test [2], 412 nM; in [3], 335 nM; in test [4], 903 nM; in test [5], 352 nM; in test [6] it was 509 nM. Further, in test [7], the GI50 is 281 nM. Moreover, the TGI was 5090 nM in test [1]; 2110 nM in test [2]; 2660 nM in test [3]; 3590 nM in test [4]; 1740 nM in [5]; 2460 nM in test [6]. For the same compound, in [7], the TGI came out at 1220 nM.

In the case of `COc1cc2[nH]c(C(=O)c3cc(OC)c(OC)c(OC)c3)c(N)c2cc1C#CC1CC1`, the GI50 is 2540 nM in test [1]; 1300 nM in [2]; 2060 nM in test [8]; 2300 nM in test [3]; 3380 nM in test [4]; 3280 nM in test [5]. Further, the figures for the GI50 in test [9], in test [6] and in test [7] were 2300 nM, 7520 nM and 4320 nM, respectively. Further, the TGI was above 100000 nM in [1]; above 100000 nM in test [2]; 85300 nM in test [8]; 14400 nM in test [3]; 28000 nM in [4]; 42500 nM in test [5]. The TGI in test [9], in test [6] and in [7] was above 100000 nM in each case.

For `CC1=C(O)C(=O)C=C2C1=CC=C1[C@@]2(C)CC[C@@]2(C)[C@@H]3C[C@](C)(C(=O)O)CC[C@]3(C)CC[C@]12C`, the TGI was 37.5 nM in test [1]; 45.9 nM in [2]; 152 nM in test [10]; 63.7 nM in test [8]; 107 nM in [3]; 145 nM in test [4]. The TGI in test [5] amounted to 58.5 nM; in test [9] it was 28.2 nM; in test [6] it was 34.5 nM.

In the case of `O=C1[C@@H]2C(c3ccccc3F)=NO[C@@H]2C(=O)N1c1ccc(Cc2ccc(N3C(=O)[C@H]4C(c5ccccc5F)=NO[C@H]4C3=O)cc2)cc1`, the TGI is above 100000 nM in [1]; above 100000 nM in [2]; above 100000 nM in [10]; above 100000 nM in test [8]; above 100000 nM in test [4]; above 83300 nM in [5]. In addition, the TGI was above 100000 nM in test [9], above 100000 nM in test [6] and above 64400 nM in [7].

Turning to `O=C(O)[C@H](NS(=O)(=O)c1ccc([N+](=O)[O-])cc1)c1ccccc1`, the TGI in test [1], in test [2], in test [10], in test [8], in test [4] and in test [5] was above 100000 nM throughout. The TGI in test [9], in test [6] and in test [7] was above 100000 nM each time.

On to `COc1cccc2c(=O)c3c(sc12)c(N1CCNCC1)nc1ccccc13`, for which the GI50 in test [1] is 1640 nM; in test [2], 1600 nM; in [10], 1650 nM; in test [8], 1550 nM; in test [3], 1750 nM; in test [4], 1460 nM. The values for the GI50 in test [5], in test [9] and in [6] were 2390 nM, 1530 nM and 1860 nM, respectively. In addition, the TGI in [1] was 3010 nM; in [2], 2970 nM; in test [10], 3240 nM; in test [8], 3280 nM; in test [3] it was 3450 nM; in test [4], 3110 nM. Also, the results for the TGI in [5], in [9] and in [6] were 5800 nM, 3090 nM and 3400 nM, respectively.

On to `COc1c(CCl)cc(-c2cc(=O)c3ccccc3s2)cc1CCl`, for which the TGI in test [1], in [2], in [8], in [3], in [5] and in test [9] was above 100000 nM each time. In addition, the TGI in test [6] is above 100000 nM.

`O=C1NC(=O)C(CC2CCCCCCCCCCC2=O)C(=O)N1` (stereo not given): the TGI in [1], in test [2], in test [8], in test [3], in test [4] and in test [9] was above 100000 nM in each case. Moreover, the TGI in test [6] and in test [7] was above 100000 nM each time.

As to `O=C(Nc1c(Cl)cc([N+](=O)[O-])cc1Cl)C(=O)C(C1OC(=O)c2ccccc21)[N+](=O)[O-]` (stereo not given), the TGI in test [1], in test [2], in test [10], in test [8], in test [4] and in test [5] was above 100000 nM throughout. For the same compound, the TGI in test [9], in [6] and in [7] was above 100000 nM throughout.

`CN(C)CCN1C(=O)c2ccc3c4c(ccc(c24)C1=O)C(=O)N(CCN=C=S)C3=O`: the GI50 was 44.8 nM in [1]; 25.6 nM in test [2]; 74.7 nM in [10]; 27 nM in test [8]; 52.4 nM in test [3]; 29.7 nM in [4]. The GI50 in test [5] is 31.8 nM; in [9], 57.9 nM; in [6], 83.9 nM. For the same compound, the TGI in test [1] was 785 nM; in test [2], 123 nM; in test [10], 224 nM; in [8] it was 134 nM; in [3], 495 nM; in test [4], 115 nM. Further, the TGI amounted to 197 nM in [5], 221 nM in [9] and 209 nM in test [6].

Consider `Nc1ccc2cc3ccc(N)cc3nc2c1`, for which the GI50 is 723 nM in test [1]; 609 nM in [2]; 1.16 µM [middle of 4 runs] in test [10]; 1210 nM in test [3]; 1.95 µM [middle of 4 runs] in test [9]. Also, the TGI was 3.21 µM [middle of 4 runs] in [10]; 10.8 µM [middle of 4 runs] in [8]; 5250 nM and 5260 nM and 11200 nM in [3]; 9.02 µM [middle of 4 runs] in test [4]; 4770 nM and 5010 nM and 6420 nM in [5]; 5.11 µM [middle of 4 runs] in [6].
